In patent US11655297B2, “ILDR2 antagonists and combinations thereof” (Bayer Aktiengesellschaft, priority 2017, dated 2023):

Assays:
[1] = tested on: IL-2 secretion of CD4 T cells co-cultured with M-CSF mature monocytes; assay: Mixed lymphocyte reaction (MLR), antibody-evoked IL-2 secretion by Elisa; format: cell-based
Protocol: To determine the effect of these antibodies on ILDR2 function an immunomodulation assay was carried out, namely a mixed lymphocyte reaction assay. The mixed lymphocyte reaction (MLR) is a test in which populations of lymphocytes are mixed together, and the resulting reactions are measured. Technically, it is an ex-vivo cellular immune assay that occurs between two allogeneic lymphocyte populations. In a one-way MLR, only one lymphocyte population can respond or proliferate. In a two-way MLR, both populations can proliferate. MLR's are performed to assess how T cells react to external stimuli, e.g., exposure to immune checkpoint inhibitors, like anti PD-1 antibodies (Wang et al 2014) and anti-PD-L1 antibodies. In the present context, antibody-evoked IL-2 secretion was measured with this assay.
In the present case, CD4 T cells from one donor were co-cultured with M-CSF mature monocytes from another donor in the presence of various ILDR2 antibodies, a function-blocking PD-L1 antibody or an isotype control for 5 days. […] Results are shown in FIG. 9B and the following table 3.

[2] = tested on: B16F10 tumor model; assay: B16-F10 preventive treatment, syngeneic tumor model; format: in vivo, mouse; details: for Mean tumor size: 10 mg/kg i.p. q3d×6 from tumor inoculation
Text: (§1) The following syngeneic tumor models were subcutaneously used in in vivo experiments: B16-F10 cells represent a mouse melanoma cell line derived from the skin of C57BL/6J mice. CT26 is an N-nitroso-N-methylurethane-(NNMU) induced, undifferentiated colon carcinoma cell line. It is a fibroblast cell type and derives from BALB/c mice. 3C9-D11-H11 cells are hybridoma B lymphocytes generated by fusion of spleen cells with Sp2/0-Ag14 myeloma cells. The spleen cells derive from BALB/c mice that were immunized with purified porcine parvovirus (PPV).

[3] = tested on: B16-F10 tumor model; assay: B16-F10 therapeutic treatment, combination with aPD-L1; format: in vivo, mouse
Text: as §1

[4] = tested on: CT26 tumor model; assay: CT26 therapeutic, combination with aPD-L1; format: in vivo, mouse; details: aPD-L1 10 mg/kg
Text: as §1

[5] = tested on: 3C9-D11-H11 tumor model; assay: 3C9-D11-H11 therapeutic, combination with aPD-L1; format: in vivo, mouse
Text: as §1

[6] = tested on: B16F10 OVA tumor model; assay: B16F10 OVA model, combination with OVA vaccine and CpG oligo; format: in vivo, mouse; details: for Mean tumor size: BAY 1905254 10 mg/kg i.p. q3d×3 starting day 8, 50 μg OVA + 10 μg CPG s.c. on day 9
Protocol: 50 μg OVA (in 50 μl)+10 μg CPG (in 10 μl)+140 μl PBS=200 μl/mouse was applied subcutaneously to the left flank adjacent to the tumor, on day 9. The CpG oligonucleotide was ODN 1826 (5′-[…]-3′; bases are phosphorothioate/nuclease resistant) that is specific for mouse TLR9 was used (Invivogen MA-1826-5).

[7] = tested on: CT26 C4.4a tumor model; assay: CT26 C4.4a model, combination with C4.4A ADC; format: in vivo, mouse; details: for Mean tumor size: BAY 1905254 10 mg/kg i.p. q3d×5, C4.4A ADC 10 mg/kg i.v. q4d×3, starting day 6
Protocol: This model is a derivative of the parental CT26 model expressing murine C4.4a on the surface of the tumor cells.
C4.4A ADC (antibody-drug conjugate BAY1129980), which is composed of an antibody against a structural homolog of the urokinase-type plasminogen activator receptor (uPAR) and tumor-associated antigen, C4.4a, and conjugated with a cytotoxic agent, was dosed 10 mg/kg i.v. q4d×3, starting day 6.

[8] = tested on: B16F10 syngeneic mouse model; assay: Tumor shrinking activity in B16F10 syngeneic mouse model (FIG. 9A); format: in vivo
Protocol: Tumor shrinking activity is measured as decrease of tumor volume, relative to an isotype control.
To determine the anti-tumor efficacy, such as for example, the tumor shrinking effect of the respective binders, two syngeneic mouse models (B16F10, CT26) were used as discussed above.

[9] = tested on: CT26 syngeneic mouse model; assay: Tumor shrinking activity in CT26 syngeneic mouse model (FIG. 9C)
Protocol: FIG. 9C: Tumor shrinking activity of selected anti ILDR2 antibodies according to the present invention in a CT26 syngeneic mouse model. Tumor shrinking activity is measured as decrease of tumor volume, relative to an Isotype control.

[10] = tested on: B16-F10 OVA tumor model; assay: B16-F10 OVA model, combination with Docetaxel; details: for tumor size of the treatment group vs. Control (T/C): B16-F10 OVA, BAY 1905254 10 mg/kg i.p. q3d×3, Docetaxel once 20 mg/kg i.v.; for Mean tumor size: BAY 1905254 10 mg/kg i.p. q3d×3 starting day 8, Docetaxel once 20 mg/kg i.v. on day 8
Protocol: Eight weeks old female C57B1/6N Cr1 BR mice (body weight 18-20 g) from Charles River Deutschland, Sulzfeld were used for the B16-F10 OVA tumor model. The model is a derivative of the B16F10 cell line expressing the allo-antigen ovalbumin which can be recognized by antigen-specific T cells. The experiment was initiated after an acclimatization period of 5 days. Animals were kept in a 12-hour light/dark cycle. Food and water was available ad libitum. Housing temperature was maintained at 21° C. Mice (n=12 per group) were s.c. inoculated with 1×10^4 B16F10 OVA tumor cells into the left flank and assigned to experimental groups. At treatment initiation, animals were marked and each cage was labeled with the cage number, study number and the number of animals per cage.
Agents were dosed i.p. at 10 mg/kg q3d×3, starting day 8.

With “BAY1905254: anti ILDR2 antibody, heavy chain SEQ ID NO:42, light chain SEQ ID NO:43” as the molecule, how does the “IL2 concentration (% over isotype control)” value ([1]; MLR, 5 days, supernatant Elisa) read?
The value was 91 +/− 11%.

And the “IL-2 secretion / cytokine induction in MLR (in words)” value ([1]; vs isotype control or anti PD-L1 antibody)?
Its value is “do not mediate IL-2 induction”.

What about the “tumor size of the treatment group vs. isotype control (T/C)” value ([2]; B16-F10 preventive, 10 mg/kg i.p. q3d×6) of the same molecule?
The value was 0.63.

What about the “tumor growth vs. isotype control (in words)” value ([2]; B16F10, 10 mg/kg i.p., start of treatment d0, 2 way ANOVA) of the same molecule?
The value was “significantly delayed”.

What about the Mean tumor size ([2]; day 3 post inoculation) of the same molecule?
Its Mean tumor size is 34.5 mm3.

What about the Mean tumor size ([2]; day 6 post inoculation) of the same molecule?
The Mean tumor size was 77.3 mm3.

And the Mean tumor size ([2]; day 8 post inoculation)?
The Mean tumor size was 90.1 mm3.

And the Mean tumor size ([2]; day 11 post inoculation)?
Its Mean tumor size is 286.8 mm3.

And the Mean tumor size ([2]; day 13 post inoculation)?
Its Mean tumor size is 389.2 mm3.

What about the Mean tumor size ([2]; day 15 post inoculation) of the same molecule?
The Mean tumor size was 1059.9 mm3.

What about the Mean tumor size ([2]; day 17 post inoculation) of the same molecule?
The Mean tumor size was 1204 mm3.

And the “tumor growth vs. isotype control (in words)” value ([3]; B16-F10 therapeutic, 10 mg/kg q3d i.p., 2 way ANOVA)?
Its value is “No monotherapy efficacy”.

What about the “tumor size of the treatment group vs. isotype control (T/C)” value ([3]; B16-F10 therapeutic, 10 mg/kg i.p. q3d×5 starting d3) of the same molecule?
The value was 1.08.

And the Mean tumor size ([3]; day 6 post inoculation, 10 mg/kg i.p. q3d×5 starting d3)?
The Mean tumor size was 76.07 mm3.

What about the Mean tumor size ([3]; day 8 post inoculation, 10 mg/kg i.p. q3d×5 starting d3) of the same molecule?
The Mean tumor size was 80.52 mm3.

What about the Mean tumor size ([3]; day 10 post inoculation, 10 mg/kg i.p. q3d×5 starting d3) of the same molecule?
Its Mean tumor size is 158.01 mm3.

And the Mean tumor size ([3]; day 13 post inoculation, 10 mg/kg i.p. q3d×5 starting d3)?
Its Mean tumor size is 479.92 mm3.

And the Mean tumor size ([3]; day 15 post inoculation, 10 mg/kg i.p. q3d×5 starting d3)?
The Mean tumor size was 986.99 mm3.

And the “tumor size of the treatment group vs. isotype control (T/C)” value ([4]; CT26, BAY1905254 3 mg/kg i.p. q3d×3 starting d7)?
The value was 0.95.

And the “tumor growth vs. isotype control (in words)” value ([4]; CT26, BAY1905254 3 mg/kg q3d i.p. from d7, 2 way ANOVA)?
The value was “no delay of tumor growth”.

And the Mean tumor size ([4]; day 7 post inoculation, BAY1905254 3 mg/kg i.p. q3d×3 starting d7)?
The Mean tumor size was 136.38 mm3.

What about the Mean tumor size ([4]; day 10 post inoculation, BAY1905254 3 mg/kg i.p. q3d×3 starting d7) of the same molecule?
The Mean tumor size was 227.41 mm3.

And the Mean tumor size ([4]; day 13 post inoculation, BAY1905254 3 mg/kg i.p. q3d×3 starting d7)?
The Mean tumor size was 367.22 mm3.

And the Mean tumor size ([4]; day 15 post inoculation, BAY1905254 3 mg/kg i.p. q3d×3 starting d7)?
The Mean tumor size was 576.28 mm3.

What about the “tumor size of the treatment group vs. isotype control (T/C)” value ([5]; 3C9-D11-H11, 10 mg/kg i.p. q3d×5 starting d8) of the same molecule?
The value was 0.87.

And the “tumor growth vs. isotype control (in words)” value ([5]; 3C9-D11-H11, 10 mg/kg q3d i.p. from d8, 2 way ANOVA)?
The value was “not the case”.

And the Mean tumor size ([5]; day 7 post inoculation, 10 mg/kg i.p. q3d×5 starting d8)?
Its Mean tumor size is 63.28 mm3.

What about the Mean tumor size ([5]; day 10 post inoculation, 10 mg/kg i.p. q3d×5 starting d8) of the same molecule?
The Mean tumor size was 67.18 mm3.

What about the Mean tumor size ([5]; day 14 post inoculation, 10 mg/kg i.p. q3d×5 starting d8) of the same molecule?
Its Mean tumor size is 198.87 mm3.

What about the Mean tumor size ([5]; day 16 post inoculation, 10 mg/kg i.p. q3d×5 starting d8) of the same molecule?
Its Mean tumor size is 314.06 mm3.

What about the Mean tumor size ([5]; day 18 post inoculation, 10 mg/kg i.p. q3d×5 starting d8) of the same molecule?
Its Mean tumor size is 574.54 mm3.

And the Mean tumor size ([5]; day 21 post inoculation, 10 mg/kg i.p. q3d×5 starting d8)?
Its Mean tumor size is 1377.9 mm3.

What about the “tumor size of the treatment group vs. Control (T/C)” value ([6]; B16F10 OVA, BAY 1905254 10 mg/kg i.p. q3d×3, OVA + CPG s.c. once) of the same molecule?
The value was 0.66.

What about the “tumor growth vs. isotype control (in words)” value ([6]; B16F10 OVA, BAY1905254 10 mg/kg q3d i.p., OVA and CPG, 2 way ANOVA) of the same molecule?
Its value is “moderate delay of tumor growth”.

And the Mean tumor size ([6]; day 9 post inoculation)?
Its Mean tumor size is 66.09 mm3.

What about the Mean tumor size ([6]; day 11 post inoculation) of the same molecule?
The Mean tumor size was 137.52 mm3.

And the Mean tumor size ([6]; day 14 post inoculation)?
Its Mean tumor size is 314.75 mm3.

And the Mean tumor size ([6]; day 16 post inoculation)?
The Mean tumor size was 483.38 mm3.

What about the Mean tumor size ([6]; day 18 post inoculation) of the same molecule?
Its Mean tumor size is 711.93 mm3.

And the “tumor size of the treatment group vs. Control (T/C)” value ([7]; CT26 C4.4a, BAY 1905254 10 mg/kg i.p. q3d×5, C4.4A ADC 10 mg/kg i.v. q4d×3)?
The value was 1.13.

And the “tumor growth vs. isotype control (in words)” value ([7]; FIG. 8, BAY1905254 10 mg/kg i.p., C4.4A ADC 10 mg/kg i.v., from d6, 2 way ANOVA)?
The value was “does not lead to a delay in tumor growth”.

What about the Mean tumor size ([7]; day 6 post inoculation) of the same molecule?
The Mean tumor size was 56.89 mm3.

What about the Mean tumor size ([7]; day 10 post inoculation) of the same molecule?
Its Mean tumor size is 141.28 mm3.

And the Mean tumor size ([7]; day 12 post inoculation)?
The Mean tumor size was 220.99 mm3.

What about the Mean tumor size ([7]; day 14 post inoculation) of the same molecule?
Its Mean tumor size is 260.95 mm3.

And the Mean tumor size ([7]; day 17 post inoculation)?
The Mean tumor size was 566.58 mm3.

And the Mean tumor size ([7]; day 19 post inoculation)?
Its Mean tumor size is 706.01 mm3.

And the “tumor shrinkage measured against an isotype control (in words)” value [8]?
Its value is “do”.

What about the “anti-tumor activity in an in vivo tumor model compared with anti PD-L1 antibody (in words)” value [9] of the same molecule?
Its value is “comparable to that of an anti PD-L1 antibody”.

And the “tumor size of the treatment group vs. Control (T/C)” value [10]?
The value was 0.86.

And the “tumor growth vs. isotype control (in words)” value ([10]; B16F10 OVA, BAY1905254 10 mg/kg q3d i.p., Docetaxel 20 mg/kg i.v. once, 2 way ANOVA)?
Its value is “moderate delay of tumor growth”.

And the Mean tumor size ([10]; day 8 post inoculation)?
The Mean tumor size was 86.26 mm3.

And the Mean tumor size ([10]; day 11 post inoculation)?
The Mean tumor size was 97.06 mm3.

What about the Mean tumor size ([10]; day 14 post inoculation) of the same molecule?
The Mean tumor size was 207.75 mm3.

What about the Mean tumor size ([10]; day 16 post inoculation) of the same molecule?
Its Mean tumor size is 382.66 mm3.

`CC(=O)O[C@@]12CO[C@@H]1C[C@H](O)[C@@]1(C)C(=O)[C@H](O)C3=C(C)[C@@H](OC(=O)[C@H](O)[C@@H](NC(=O)OC(C)(C)C)c4ccccc4)C[C@@](O)([C@@H](OC(=O)c4ccccc4)[C@H]21)C3(C)C` [Docetaxel, reference compound] was tested. Which “tumor size of the treatment group vs. Control (T/C)” value [10] did it give?
The value was 0.74.

What about the Mean tumor size ([10]; day 8 post inoculation) of the same molecule?
Its Mean tumor size is 86.56 mm3.

What about the Mean tumor size ([10]; day 11 post inoculation) of the same molecule?
Its Mean tumor size is 100.78 mm3.

And the Mean tumor size ([10]; day 14 post inoculation)?
Its Mean tumor size is 165.78 mm3.

And the Mean tumor size ([10]; day 16 post inoculation)?
Its Mean tumor size is 305.33 mm3.
